Test results published in article PMC6089664 (Clinical pharmacology and therapeutics, 2017).
Where two headings read alike, the source gives them in different places.

Experiments:
[1] = cited from earlier work
serum IP-10 = experiment: Correlation of AUC24,SS with serum CXCL10/IP-10 levels; format: in vivo, human; conditions: 189 observations in 18 patients, linear mixed model, p-value for slope 0.0002
25-gene IFN score = experiment: Correlation of AUC24,SS with whole blood 25-gene IFN score; format: in vivo, human; conditions: subset (5) of CANDLE patients
[2] = Population pharmacokinetic; format: in vivo, human; conditions: for AUC24,SS/Dose: AUC24,SS/total daily dose
[3] = 18 patients, 54 patient-years of exposure
[4] = popPK final model, 18 patients, oral

CCS(=O)(=O)N1CC(CC#N)(n2cc(-c3ncnc4[nH]ccc34)cn2)C1 [baricitinib, Baricitinib]
half-life ([1]; RA population): 12.5 h
half-life ([1]; healthy adult subjects): 10 h
effect of renal impairment on Cmax ([1]; moderate and severe renal impairment, ref data on file, Eli Lilly and Company): minimal effect
half-life ([1]; psoriasis patients): 12.8 h
slope of correlation of AUC24,SS with serum IP-10 levels (serum IP-10): −0.197
patients who developed BK viremia [3]: 44%
patients with Herpes Zoster [3]: 1 patient
deaths during the program (mean exposure 35.4 months): No deaths
most frequently reported TEAEs (over 54 patient-years): Upper respiratory tract infection
AUC24,SS at which CANDLE patients normalized their IFN scores (25-gene IFN score): 1500 to 2000 nM·h
projected initial exposure (AUC24,SS) with proposed starting dose ([2]; 20–40kg, eGFR ≥120 mL/min/1.73 m^2, initial dose 6 mg/day BID): 1077 to 2688 nM·h
projected initial exposure (AUC24,SS) with proposed starting dose ([2]; <20kg, eGFR ≥120 mL/min/1.73 m^2, initial dose 6 mg/day TID): 1769 to 2112 nM·h
projected initial exposure (AUC24,SS) with proposed starting dose ([2]; >40kg, eGFR ≥120 mL/min/1.73 m^2, initial dose 8 mg/day BID): 1082 to 1958 nM·h
Covariate effect of GFR on Clearance, parameter for GFR-CL (%SEE) ([2]; CL/Ftypical=9.74×(eGFR/146.82)^0.444): 0.444 (24.8%)
Covariate effect of Weight on V/F, parameter for WTV-V (%SEE) ([2]; V/Ftypical = 67.1 × e^0.0192·(WTV−27.2)): 0.0192 (15.0%)
geometric mean AUC24,SS at clinically effective doses ([2]; all patients, final PK assessments): ~ 2388 nM*h
dose proportionality of PK ([2]; dosing range of 1–14 mg daily): dose linearity
AUC24,SS/Dose ([2]; eGFR ≥120 ml/min/1.73 m^2, 20–40kg (n=5), geometric mean (%CV)): 292 nM·h/mg
AUC24,SS/Dose ([2]; eGFR ≥120 ml/min/1.73 m^2, <20kg (n=2), geometric mean (%CV)): 322 nM·h/mg
AUC24,SS/Dose ([2]; eGFR ≥120 ml/min/1.73 m^2, >40kg (n=5), geometric mean (%CV)): 193 nM·h/mg
AUC ([2]; human, plasma, oral, 6 mg/day, AUC24,SS, eGFR <120 ml/min/1.73 m^2, <20kg (n=2), final PK visit, geometric mean (%CV)): 3.08 µM·h
CL/F ([2]; human, plasma, oral, 6.9 mg/day): 5.33 mL/min/kg
half-life ([2]; human, plasma, oral, 6.9 mg/day, t1/2, eGFR ≥120 ml/min/1.73 m^2, 20–40kg (n=5), final PK visit, geometric mean (%CV)): 5 h
CL/F ([2]; human, plasma, oral, 8 mg/day): 9.33 mL/min/kg
AUC ([2]; human, plasma, oral, 8 mg/day, AUC24,SS, eGFR ≥120 ml/min/1.73 m^2, <20kg (n=2), final PK visit, geometric mean (%CV)): 2.58 µM·h
Cmax ([2]; human, plasma, oral, 8 mg/day, eGFR ≥120 ml/min/1.73 m^2, <20kg (n=2), final PK visit, geometric mean (%CV)): 171 nM
half-life ([2]; human, plasma, oral, 8 mg/day, t1/2, eGFR ≥120 ml/min/1.73 m^2, <20kg (n=2), final PK visit, geometric mean (%CV)): 4.4 h
half-life ([2]; human, plasma, oral, 10 mg/day, t1/2, eGFR ≥120 ml/min/1.73 m^2, >40kg (n=5), final PK visit, geometric mean (%CV)): 7 h
AUC ([2]; human, plasma, oral, AUC24,SS, eGFR <120 ml/min/1.73 m^2, >40kg (n=3), final PK visit, geometric mean (%CV)): 2.53 µM·h
AUC ([2]; human, plasma, oral, AUC24,SS, eGFR ≥120 ml/min/1.73 m^2, 20–40kg (n=5), final PK visit, geometric mean (%CV)): 2.02 µM·h
AUC ([2]; human, plasma, oral, AUC24,SS, eGFR ≥120 ml/min/1.73 m^2, >40kg (n=5), final PK visit, geometric mean (%CV)): 1.94 µM·h
Cmax ([2]; human, plasma, oral, eGFR <120 ml/min/1.73 m^2, <20kg (n=2), final PK visit, geometric mean (%CV)): 229 nM
Cmax ([2]; human, plasma, oral, eGFR <120 ml/min/1.73 m^2, >40kg (n=3), final PK visit, geometric mean (%CV)): 180 nM
Cmax ([2]; human, plasma, oral, eGFR ≥120 ml/min/1.73 m^2, 20–40kg (n=5), final PK visit, geometric mean (%CV)): 150 nM
Cmax ([2]; human, plasma, oral, eGFR ≥120 ml/min/1.73 m^2, >40kg (n=5), final PK visit, geometric mean (%CV)): 136 nM
half-life ([2]; human, plasma, oral, estimated half-life, patient O3, >40 kg, eGFR 54–76 mL/min/1.73 m^2): 17 to 19.2 h
AUC ([2]; human, plasma, oral, geometric mean AUC24,SS at clinically effective doses, all patients, final PK assessments): 2.39 µM·h
half-life ([2]; human, plasma, oral, t1/2, eGFR <120 ml/min/1.73 m^2, <20kg (n=2), final PK visit, geometric mean (%CV)): 4.8 h
half-life ([2]; human, plasma, oral, t1/2, eGFR <120 ml/min/1.73 m^2, >40kg (n=3), final PK visit, geometric mean (%CV)): 7.8 h
Vd/F ([2]; human, plasma, po): 67.1 L
Absorption duration D1, population estimate (%SEE) [2, 4]: 0.971 (14.8%) hr
Apparent Clearance CL/F, population estimate (%SEE) [2, 4]: 9.74 (9.57%) L/hr
